Target: T1, human PDE2A1 (Homo sapiens, UniProt O00408)
T1 construct: GST; purchased BPS Bioscience (San Diego, Calif.) 60020; host or cells: insect cells
Assay: IMAP FP PDE selectivity panel, human PDE2A1
Assay type: biochemical
Details: Lab B; read-out: Human PDE2 Ki (nM) Lab B
Summary of the method: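 IMAP FP read-out, run at room temperature in parallel with PDE1–11: enzyme at 20% substrate conversion, 50 nM FAM-cAMP containing 1000 nM cGMP, Tris pH 7.2/MgCl2/DTT buffer. Compounds as ten 3-fold dilutions. Reaction 60 min, stopped with binding reagent for 1 h before polarization measurement.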

T1 sequence (O00408 1-920 isoform O00408-2): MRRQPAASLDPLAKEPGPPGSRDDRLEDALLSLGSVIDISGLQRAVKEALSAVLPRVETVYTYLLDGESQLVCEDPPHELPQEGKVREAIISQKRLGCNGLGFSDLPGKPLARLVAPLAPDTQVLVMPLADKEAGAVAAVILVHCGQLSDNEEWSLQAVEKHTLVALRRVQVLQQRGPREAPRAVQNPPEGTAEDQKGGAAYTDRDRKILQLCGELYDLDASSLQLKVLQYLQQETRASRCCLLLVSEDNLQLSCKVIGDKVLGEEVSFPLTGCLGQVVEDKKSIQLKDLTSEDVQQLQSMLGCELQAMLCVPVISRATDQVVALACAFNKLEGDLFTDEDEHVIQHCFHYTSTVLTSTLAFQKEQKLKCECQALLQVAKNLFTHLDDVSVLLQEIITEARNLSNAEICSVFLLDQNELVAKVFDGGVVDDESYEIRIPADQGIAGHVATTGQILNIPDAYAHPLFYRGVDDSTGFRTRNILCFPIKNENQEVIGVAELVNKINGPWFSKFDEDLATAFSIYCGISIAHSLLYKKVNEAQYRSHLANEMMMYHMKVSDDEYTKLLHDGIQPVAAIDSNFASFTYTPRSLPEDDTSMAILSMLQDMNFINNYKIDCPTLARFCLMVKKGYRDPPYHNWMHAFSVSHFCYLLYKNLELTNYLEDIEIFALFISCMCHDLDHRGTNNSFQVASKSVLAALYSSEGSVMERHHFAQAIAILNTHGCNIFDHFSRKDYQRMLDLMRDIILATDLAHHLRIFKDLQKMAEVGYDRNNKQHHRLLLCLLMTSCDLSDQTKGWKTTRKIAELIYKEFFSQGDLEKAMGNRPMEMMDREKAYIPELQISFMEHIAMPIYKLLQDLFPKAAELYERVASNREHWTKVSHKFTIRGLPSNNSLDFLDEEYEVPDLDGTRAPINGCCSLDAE

| SMILES | Ki [nM] |
| --- | --- |
| Cc1cc(N[C@@H](c2ccc(C(F)(F)F)c(F)c2)C(C)C)n2ncnc2n1 [Example 20, N-{(1R)-1-[3-Fluoro-4-(trifluoromethyl)phenyl]-2-methylpropyl}-5-methyl[1,2,4]triazolo[1,5-a] pyrimidin-7-amine] | 28 |
| Cc1cc(N[C@@H](c2ccc(OC(F)F)cc2)C(C)C)n2ncnc2n1 [Example 23, N-{(1R)-1-[4-(Difluoromethoxy)phenyl]-2-methylpropyl}-5-methyl [1,2,4]triazolo[1,5-a]pyrimidin-7-amine] | 45 |
| Cc1cc(N[C@@H](c2ccc(C3(C)CC3)cc2)C(C)C)n2ncnc2n1 [Example 24, 5-Methyl-N-{(1R)-2-methyl-1-[4-(1-methyl-cyclopropyl)phenyl]propyl} [1,2,4]triazolo[1,5-a]pyrimidin-7-amine] | 26 |
| Cc1cc(N[C@@H](c2ccc(OC(F)F)cc2)C(C)(C)C)n2ncnc2n1 [Example 33, N-{(1R)-1-[4-(Difluoromethoxy)phenyl]-2,2-dimethylpropyl}-5-methyl[1,2,4]triazolo[1,5-a] pyrimidin-7-amine] | 17 |
| Cc1cc(N[C@@H](c2ccc(S(F)(F)(F)(F)F)cc2)C2CC2)n2ncnc2n1 [Example 37, N-{(1R)-Cyclopropyl[4-(pentafluoro-λ^6-sulfanyl)phenyl]methyl}-5-methyl[1,2,4]triazolo[1,5-a] pyrimidin-7-amine] | 22 |
| Cc1cc(N[C@@H](c2ccc(C3CC3)c(F)c2)C2CC2)n2ncnc2n1 [Example 38, N-[(R)-Cyclopropyl(4-cyclopropyl-3-fluorophenyl)methyl]-5-methyl[1,2,4]triazolo[1,5-a] pyrimidin-7-amine] | 20 |
| Cc1cc(N[C@@H](c2ccc(C(F)(F)F)c(F)c2)C2CC2)n2ncnc2n1 [Example 39, N-{(R)-Cyclopropyl[3-fluoro-4-(trifluoromethyl)phenyl]methyl}-5-methyl[1,2,4]triazolo[1,5-a] pyrimidin-7-amine] | 49 |
| Cc1cc(N[C@@H](c2ccc(SC(F)(F)F)c(F)c2)C2CC2)n2ncnc2n1 [Example 41, N-[(R)-Cyclopropyl{3-fluoro-4-[(trifluoromethyl)sulfanyl]phenyl}methyl]-5-methyl[1,2,4]triazolo[1,5-a] pyrimidin-7-amine] | 19 |
| Cc1cc(N[C@@H](c2ccc(C3CC3)cc2)C2CC2)n2ncnc2n1 [Example 42, N-[(R)-Cyclopropyl(4-cyclopropylphenyl)methyl]-5-methyl[1,2,4]triazolo[1,5-a] pyrimidin-7-amine] | 20 |
| Cc1cc(N[C@@H](c2ccc(C(F)(F)F)c(F)c2)C2(C)CC2)n2ncnc2n1 [Example 43, N-[(R)-[3-Fluoro-4-(trifluoromethyl)phenyl](1-methylcyclopropyl)methyl]-5-methyl[1,2,4]triazolo[1,5-a] pyrimidin-7-amine] | 23 |
| Cc1cc(N[C@@H](c2ccc(S(F)(F)(F)(F)F)cc2)C2(C)CC2)n2ncnc2n1 [Example 44, 5-Methyl-N-{(R)-(1-methylcyclopropyl)[4-(pentafluoro-λ^6-sulfanyl)phenyl]methyl} [1,2,4]triazolo[1,5-a]pyrimidin-7-amine] | 18 |

These reach a lower Ki. Values come first.

| Ki [nM] | SMILES |
| --- | --- |
| 4 | Cc1cc(N[C@@H](c2ccc(SC(F)(F)F)c(F)c2)C(C)C)n2ncnc2n1 [Example 21, N-[(1R)-1-{3-Fluoro-4-[(trifluoromethyl)sulfanyl]phenyl}-2-methylpropyl]-5-methyl[1,2,4]triazolo[1,5-a] pyrimidin-7-amine] |
| 13 | Cc1cc(N[C@@H](c2ccc(S(F)(F)(F)(F)F)cc2)C(C)C)n2ncnc2n1 [Example 22, 5-Methyl-N-{(1R)-2-methyl-1-[4-(pentafluoro-λ^6-sulfanyl)phenyl]propyl}[1,2,4]triazolo[1,5-a] pyrimidin-7-amine] |
| 9.9 | Cc1cc(N[C@@H](c2ccc(C3CC3)cc2F)C(C)C)n2ncnc2n1 [Example 25, N-[(1R)-1-(4-Cyclopropyl-2-fluorophenyl)-2-methylpropyl]-5-methyl[1,2,4]triazolo[1,5-a] pyrimidin-7-amine] |
| 11 | Cc1cc(N[C@@H](c2ccc(C(F)(F)F)cc2)C(C)(C)C)n2ncnc2n1 [Example 26, N-{(1R)-2,2-Dimethyl-1-[4-(trifluoromethyl)phenyl]propyl}-5-methyl[1,2,4]triazolo[1,5-a] pyrimidin-7-amine] |
| 10 | Cc1cc(N[C@@H](c2ccc(C(F)(F)F)c(F)c2)C(C)(C)C)n2ncnc2n1 [Example 27, N-{(1R)-1-[3-Fluoro-4-(trifluoromethyl)phenyl]-2,2-dimethylpropyl}-5-methyl[1,2,4]triazolo[1,5-a] pyrimidin-7-amine] |
| 7.1 | Cc1cc(N[C@@H](c2ccc(OC(F)(F)F)c(F)c2)C(C)(C)C)n2ncnc2n1 [Example 28, N-{(1R)-1-[3-Fluoro-4-(trifluoromethoxy)phenyl]-2,2-dimethylpropyl}-5-methyl[1,2,4]triazolo[1,5-a] pyrimidin-7-amine] |
| 2.1 | Cc1cc(N[C@@H](c2ccc(SC(F)(F)F)cc2)C(C)(C)C)n2ncnc2n1 [Example 29, N-[(1R)-2,2-Dimethyl-1-{4-[(trifluoromethyl)sulfanyl]phenyl}propyl]-5-methyl[1,2,4]triazolo[1,5-a] pyrimidin-7-amine] |
| 4.4 | Cc1cc(N[C@@H](c2ccc(C3CC3)cc2)C(C)(C)C)n2ncnc2n1 [Example 30, N-[(1R)-1-(4-Cyclopropyl-phenyl)-2,2-dimethylpropyl]-5-methyl[1,2,4]triazolo[1,5-a] pyrimidin-7-amine] |
| 4.9 | Cc1cc(N[C@@H](c2ccc(C3CC3)c(F)c2)C(C)(C)C)n2ncnc2n1 [Example 31, N-[(1R)-1-(4-Cyclopropyl-3-fluorophenyl)-2,2-dimethylpropyl]-5-methyl[1,2,4]triazolo[1,5-a] pyrimidin-7-amine] |
| 6.6 | Cc1cc(N[C@@H](c2ccc(OC(F)(F)F)cc2)C(C)(C)C)n2ncnc2n1 [Example 32, N-{(1R)-2,2-Dimethyl-1-[4-(trifluoromethoxy)phenyl]propyl}-5-methyl[1,2,4]triazolo[1,5-a] pyrimidin-7-amine] |
| 15 | Cc1cc(N[C@@H](c2ccc(C(F)(F)F)cc2F)C(C)(C)C)n2ncnc2n1 [Example 34, N-{(1R)-1-[2-Fluoro-4-(trifluoromethyl)phenyl]-2,2-dimethylpropyl}-5-methyl[1,2,4]triazolo[1,5-a] pyrimidin-7-amine] |
| 7.8 | Cc1cc(N[C@@H](c2ccc(CC(F)(F)F)cc2)C(C)(C)C)n2ncnc2n1 [Example 35, N-{(1R)-2,2-Dimethyl-1-[4-(2,2,2-trifluoroethyl)phenyl]propyl}-5-methyl[1,2,4]triazolo[1,5-a] pyrimidin-7-amine] |
| 6.3 | Cc1cc(N[C@@H](c2ccc(S(F)(F)(F)(F)F)cc2)C(C)(C)C)n2ncnc2n1 [Example 36, N-{(1R)-2,2-Dimethyl-1-[4-(pentafluoro-λ^6-sulfanyl)phenyl]propyl}-5-methyl [1,2,4]triazolo[1,5-a]pyrimidin-7-amine] |
| 14 | Cc1cc(N[C@@H](c2ccc(SC(F)(F)F)cc2)C2CC2)n2ncnc2n1 [Example 40, N-[(R)-Cyclopropyl{4-[(trifluoromethyl)sulfanyl]phenyl}methyl]-5-methyl[1,2,4]triazolo[1,5-a] pyrimidin-7-amine] |

Reference: patent US10357481B2 (MERCK SHARP & DOHME CORP., priority 2015, dated 2019)
